Reference: US20100311736A1, “PYRIDOSULFONAMIDE DERIVATIVES AS P13 KINASE INHIBITORS” (GlaxoSMithKline LLC, priority 2007, published 2010)
Where two headings read alike, the source gives them in different places.

Legend:
Class I PI3-kinases = conditions: cited from earlier work
CK2 protein kinase = CK2 protein kinase (Homo sapiens, UniProt P68400); conditions: background statement; cited from earlier work
PI3Kα = biological target: T1, PI3Kα (Homo sapiens, UniProt P42336); assay: PI3K alpha enzyme inhibition (TR-FRET assay / Leadseeker SPA assay); assay type: biochemical; conditions: in at least one experimental run; read-out: IC50 against PI3Kα
T1 construct: His; made in house
Procedure: Compounds of the present invention were tested according to the following assays and found as inhibitors of PI3 kinases, particularly PI3Kα. The exemplified compounds were tested and found active against PI3Kα. The IC50's ranged from about 1 nM to 10 μM.
The PI3-Kinase assay has been developed and optimized from a kit produced by Upstate (Millipore). Briefly, this kit contains a biotinylated PIP3 which forms a HTRF (homogeneous time-resolved fluorescence energy transfer) complex when mixed with a Europium labeled anti-GST monoclonal antibody, a GST tagged pleckstrin homology (PH) domain, and Streptavidin-Allophycocyanin (APC). The unlabeled PIP3 produced by PI 3-Kinase activity displaces biotin-PIP3 from the complex resulting in a loss of energy transfer and thus a decrease in signal. Millipore, PI 3-Kinase (human) HTRF™ Assay, technical document associated with catalog #33-017
Compounds are serially diluted (3-fold in 100% DMSO) across a polypropylene 120 μL mother plate from column 1 to column 12 and column 13 to column 24, leaving columns 6 and 18 containing only DMSO to yield 11 concentrations for each test compound. Once titrations are made, 0.1 μL is transferred to the assay plates (Greiner 784075). This assay plate contains three controls: column 6 with DMSO, and column 18 with alternating 20 μM wortmannin and 40 μM PIP3. […] The PIP3 control is dispensed into the plate manually via a matrix pipettor, 1 μL of 200 μM PIP3 in 1× Reaction buffer to wells 18 B, D, F, H, J, L, N, P.
The PI3-Kinase assay has been developed and optimized from a kit produced by Upstate (Millipore). The assay kit (cat: 33-017) contains seven reagents: 1) 4× Reaction Buffer, 2) PIP2 (1 mM), 3) Stop A, 4) Stop B, 5) Detection Mix A, 6) Detection Mix B, 7) Detection Mix C. In addition the following items were obtained or purchased, PI3Kinase (prepared in-house), 4× PI3K Detection Buffer (Millipore), dithiothreitol (Sigma, D-5545), Adenosine-5′-triphosphate (ATP, Sigma, A-6419), PIP3 (1,2-dioctanoyl-sn-glycero-3-[phosphoinositil-3,4,5-triphosphate]tetraammonium salt (Avanti polar lipids, 850186P), DMSO (Sigma, 472301), Wortmannin (Sigma, W-1628).
Prepare 1× PI3Kinase Reaction Buffer by diluting stock 1:4 with de-ionized water, freshly prepared DTT is added at a final concentration of 5 mM on the day of use. Enzyme addition and compound preincubation is initiated by the addition of 2.5 μL of 2× enzyme solution, PI3K alpha in 1× reaction buffer, to all wells using a Multidrop Combi. Plates are incubated at room temperature for 15 minutes. Substrate addition and reaction initiation is completed by the addition of 2.5 μL of 2× substrate solution, PIP2 and ATP in 1× reaction buffer, to all wells using a Multidrop Combi. […] Incubate one hour, evaluate the HTRF signal on the Envision plate reader. […]

T1 sequence (P42336 whole entry): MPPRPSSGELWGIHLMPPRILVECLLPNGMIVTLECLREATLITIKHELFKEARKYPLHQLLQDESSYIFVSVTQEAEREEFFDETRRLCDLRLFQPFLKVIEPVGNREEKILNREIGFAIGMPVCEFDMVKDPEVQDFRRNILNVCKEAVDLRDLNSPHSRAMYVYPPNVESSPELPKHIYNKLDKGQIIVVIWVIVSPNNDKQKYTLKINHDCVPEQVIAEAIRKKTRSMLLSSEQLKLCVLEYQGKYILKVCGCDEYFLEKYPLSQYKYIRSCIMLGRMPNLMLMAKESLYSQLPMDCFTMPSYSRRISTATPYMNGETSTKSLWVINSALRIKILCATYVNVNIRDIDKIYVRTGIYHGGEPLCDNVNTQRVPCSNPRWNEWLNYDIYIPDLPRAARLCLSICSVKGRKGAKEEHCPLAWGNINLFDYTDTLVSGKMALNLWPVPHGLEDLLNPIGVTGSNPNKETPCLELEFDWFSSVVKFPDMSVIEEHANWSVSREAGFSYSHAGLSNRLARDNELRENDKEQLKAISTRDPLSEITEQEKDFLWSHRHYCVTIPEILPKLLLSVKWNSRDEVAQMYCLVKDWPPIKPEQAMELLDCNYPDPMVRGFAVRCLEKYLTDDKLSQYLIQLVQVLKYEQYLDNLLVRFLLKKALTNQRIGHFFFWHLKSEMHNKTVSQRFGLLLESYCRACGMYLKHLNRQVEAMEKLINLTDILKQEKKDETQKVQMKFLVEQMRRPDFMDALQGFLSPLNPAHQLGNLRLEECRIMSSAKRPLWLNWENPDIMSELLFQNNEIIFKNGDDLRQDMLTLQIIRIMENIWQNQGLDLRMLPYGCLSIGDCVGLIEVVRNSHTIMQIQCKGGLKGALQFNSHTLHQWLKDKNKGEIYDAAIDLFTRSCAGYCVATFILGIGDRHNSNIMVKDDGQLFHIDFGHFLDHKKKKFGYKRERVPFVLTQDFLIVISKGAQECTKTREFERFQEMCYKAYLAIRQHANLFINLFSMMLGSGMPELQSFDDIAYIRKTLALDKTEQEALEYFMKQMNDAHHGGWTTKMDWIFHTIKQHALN
T1 sequence (P27986 whole entry partner): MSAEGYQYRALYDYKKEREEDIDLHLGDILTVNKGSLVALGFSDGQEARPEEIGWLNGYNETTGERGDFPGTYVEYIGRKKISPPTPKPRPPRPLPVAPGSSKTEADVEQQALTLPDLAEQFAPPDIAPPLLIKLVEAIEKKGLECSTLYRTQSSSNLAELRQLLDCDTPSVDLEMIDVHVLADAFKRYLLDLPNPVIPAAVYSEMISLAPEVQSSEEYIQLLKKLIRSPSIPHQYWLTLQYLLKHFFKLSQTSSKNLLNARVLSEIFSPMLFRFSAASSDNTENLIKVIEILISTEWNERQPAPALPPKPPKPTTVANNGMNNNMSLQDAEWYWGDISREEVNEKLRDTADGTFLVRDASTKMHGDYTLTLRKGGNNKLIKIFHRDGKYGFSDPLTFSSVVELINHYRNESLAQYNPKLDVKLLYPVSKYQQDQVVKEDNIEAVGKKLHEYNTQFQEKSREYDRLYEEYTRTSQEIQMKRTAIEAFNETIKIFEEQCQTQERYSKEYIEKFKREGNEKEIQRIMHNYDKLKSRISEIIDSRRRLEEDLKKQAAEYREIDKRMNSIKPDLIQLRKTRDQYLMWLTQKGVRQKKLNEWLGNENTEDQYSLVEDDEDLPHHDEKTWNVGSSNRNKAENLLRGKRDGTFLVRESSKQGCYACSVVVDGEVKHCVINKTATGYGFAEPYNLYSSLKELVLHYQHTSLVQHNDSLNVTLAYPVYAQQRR
CK2 protein kinase, sequence (P68400 whole entry): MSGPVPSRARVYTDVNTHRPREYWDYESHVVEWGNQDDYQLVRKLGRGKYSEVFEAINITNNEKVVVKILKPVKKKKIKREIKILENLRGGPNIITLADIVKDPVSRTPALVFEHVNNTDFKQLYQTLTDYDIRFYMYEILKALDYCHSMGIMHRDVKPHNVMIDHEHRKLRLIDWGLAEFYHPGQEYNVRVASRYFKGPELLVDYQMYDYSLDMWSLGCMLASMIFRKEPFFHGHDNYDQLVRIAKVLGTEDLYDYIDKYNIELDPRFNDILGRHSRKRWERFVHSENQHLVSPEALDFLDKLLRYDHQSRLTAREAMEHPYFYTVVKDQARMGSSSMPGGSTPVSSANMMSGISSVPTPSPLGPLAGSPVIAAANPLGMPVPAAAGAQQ

Row | IC50 (PI3Kα) [nM] | SMILES | other results
1 | – | COC[C@H]1OC(=O)c2coc3c2[C@@]1(C)C1=C(C3=O)[C@@H]2CCC(=O)[C@@]2(C)C[C@H]1OC(C)=O [wortmannin] | IC50 (Class I PI3-kinases; wortmannin, background statement, read-out: IC50 against each of the various Class I PI3-kinases): 1 to 10 nM
2 | – | O=c1cc(N2CCOCC2)oc2c(-c3ccccc3)cccc12 [LY294002] | IC50 (Class I PI3-kinases; Fruman et al. 1998, read-out: IC50 against each of these PI3-kinases): 15000 to 20000 nM; IC50 (CK2 protein kinase): 5000 to 10000 nM
3 | 631 | O=S(=O)(Nc1cc(-c2ccc3ccccc3c2)cnc1Cl)c1ccccc1 [Example 27, N-[2-chloro-5-(2-naphthalenyl)-3-pyridinyl]benzenesulfonamide] | –
4 | 100 | CNc1ncc(-c2cnc(Cl)c(NS(=O)(=O)c3ccccc3)c2)cn1 [Example 29, N-{2-chloro-5-[2-(methylamino)-5-pyrimidinyl]-3-pyridinyl}benzenesulfonamide] | –
5 | 316 | O=S(=O)(Nc1cc(-c2cn[nH]c2)cnc1Cl)c1ccccc1 [Example 22, N-[2-chloro-5-(1H-pyrazol-4-yl)-3-pyridinyl]benzenesulfonamide] | –
6 | 13 | O=S(=O)(Nc1cc(-c2ccc3nccn3c2)cnc1Cl)c1ccccc1 [Example 35, N-(2-chloro-5-imidazo[1,2-a]pyridin-6-yl-3-pyridinyl)benzenesulfonamide] | –
